Assay results: ChEMBL document CHEMBL5365443, “Synthesis and biological evaluation of simplified ajudazol derivatives reveal potent 5-lipoxygenase inhibition and considerable apoptotic activity in neuroblastoma cells” (Bioorg Med Chem Lett, 2023)
Calls of active or inactive are those of the source. No cut-off for these calls is given here.

Assays:
B104 [1] = assay: Effect on NADH:UQ oxidoreductase expression in rat B104 cells; type: functional, cell-based
B104 [2] = assay: Upregulation of LDH mRNA expression in rat B104 cells; type: functional, cell-based
B104 [3] = assay: Upregulation of NADH mRNA expression in rat B104 cells; type: functional, cell-based
B104 [4] = assay: Upregulation of […] mRNA expression in rat B104 cells; type: functional, cell-based
B104 [5] = assay: Upregulation of ICDH mRNA expression in rat B104 cells; type: functional, cell-based
[6] = molecular target: T1, Polyunsaturated fatty acid 5-lipoxygenase (Homo sapiens, UniProt P09917); assay: Inhibition of 5-LO (unknown origin)
T1 sequence (P09917 whole entry): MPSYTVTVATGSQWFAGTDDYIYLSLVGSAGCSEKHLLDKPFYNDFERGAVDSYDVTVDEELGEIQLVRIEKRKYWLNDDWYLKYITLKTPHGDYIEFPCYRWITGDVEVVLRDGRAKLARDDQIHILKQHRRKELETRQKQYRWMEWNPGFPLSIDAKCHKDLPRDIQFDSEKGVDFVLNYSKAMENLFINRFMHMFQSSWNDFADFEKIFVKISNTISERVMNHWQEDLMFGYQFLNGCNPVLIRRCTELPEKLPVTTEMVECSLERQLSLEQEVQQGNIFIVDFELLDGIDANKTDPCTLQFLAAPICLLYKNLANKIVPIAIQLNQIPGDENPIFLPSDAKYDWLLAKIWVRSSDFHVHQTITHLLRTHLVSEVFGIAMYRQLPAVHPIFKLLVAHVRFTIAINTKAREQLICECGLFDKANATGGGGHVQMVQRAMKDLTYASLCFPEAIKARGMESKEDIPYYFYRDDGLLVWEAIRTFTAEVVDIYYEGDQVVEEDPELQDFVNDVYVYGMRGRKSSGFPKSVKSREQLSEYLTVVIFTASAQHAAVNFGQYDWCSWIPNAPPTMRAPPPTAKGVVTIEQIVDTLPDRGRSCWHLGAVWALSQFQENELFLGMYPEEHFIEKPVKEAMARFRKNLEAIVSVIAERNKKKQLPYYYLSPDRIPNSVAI

[7] = molecular target: T1, Polyunsaturated fatty acid 5-lipoxygenase; assay: Inhibition of 5-LO in human neutrophils; type: cell-based, Neutrophil
B104 [8] = assay: Antiproliferative activity against rat B104 cells assessed as reduction in cell growth by MTT assay; type: functional, cell-based
1321N1 = assay: Antiproliferative activity against human 1321N1 cells assessed as inhibition of cell growth by MTT assay; type: functional, cell-based
SH-SY5Y = assay: Antiproliferative activity against human SH-SY5Y cells assessed as reduction in cell growth at 10 to 1000 nM; type: functional, cell-based; details: dose 10-1000 nM
B104 [9] = assay: Induction of apoptosis in rat B104 cells assessed as DNA fragmentation at 10 uM by DNA laddering assay; type: functional, cell-based
B104 [10] = assay: Induction of apoptosis in rat B104 cells assessed as DNA fragmentation at 100 uM by DNA laddering assay; type: functional, cell-based
B104 [11] = assay: Antiproliferative activity against rat B104 cells assessed as reduction in cell growth at 10 to 1000 nM; type: functional, cell-based; details: dose 10-1000 nM
[12] = Drug degradation in methanol assessed as half life; type: ADME
Prostaglandin E synthase = molecular target: T2, Prostaglandin E synthase (Homo sapiens, UniProt O14684); assay: Inhibition of mPGES-1 (unknown origin)
T2 sequence (O14684 whole entry): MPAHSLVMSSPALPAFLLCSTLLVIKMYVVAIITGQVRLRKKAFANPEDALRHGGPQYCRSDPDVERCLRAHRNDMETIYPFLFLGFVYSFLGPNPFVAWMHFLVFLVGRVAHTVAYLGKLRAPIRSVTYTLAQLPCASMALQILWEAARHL

B104 [13] = assay: Upregulation of OGDH level in rat B104 cells at 10 nM; type: functional, cell-based
B104 [14] = assay: Upregulation of ICDH level in rat B104 cells at 10 nM; type: functional, cell-based
B104 [15] = assay: Upregulation of LDH level in rat B104 cells at 10 nM; type: functional, cell-based

Structure (SMILES) | IC50 [6] | IC50 [7] | half-life [12] | IC50 (Prostaglandin E synthase) | Activity (B104 [1]) | Activity (B104 [2]) | Activity (B104 [3]) | Activity (B104 [4]) | Activity (B104 [5]) | Activity (B104 [8]) | IC50 (1321N1) | Activity (SH-SY5Y) | Activity (B104 [9]) | Activity (B104 [10]) | Activity (B104 [11]) | Activity (B104 [13]) | Activity (B104 [14]) | Activity (B104 [15])
C=C(I)CCO[Si](CC)(CC)CC | – | – | – | – | Active | inactive | Active | Active | Active | – | – | – | – | – | – | – | – | –
CO/C(C)=C/C(=O)N(C)C/C=C/CC/C=C\C=C/C[C@@H](C)c1nc(C[C@@H](C)[C@H]2OC(=O)c3c(ccc(C)c3O)[C@@H]2O)co1 | 6.9 µM | 1.6 µM | – | – | – | – | – | – | – | – | – | – | – | – | – | – | – | –

The next lines start with results.

IC50 [6] | IC50 [7] | half-life [12] | IC50 (Prostaglandin E synthase) | Structure (SMILES) | Activity (B104 [1]) | Activity (B104 [2]) | Activity (B104 [3]) | Activity (B104 [4]) | Activity (B104 [5]) | Activity (B104 [8]) | IC50 (1321N1) | Activity (SH-SY5Y) | Activity (B104 [9]) | Activity (B104 [10]) | Activity (B104 [11]) | Activity (B104 [13]) | Activity (B104 [14]) | Activity (B104 [15])
1.1 µM | 2.5 µM | ~168 h | 3.2 µM | C=C(C/C=C\C=C/CC/C=C/CN(C)C(=O)/C=C(\C)OC)c1nc(C[C@@H](C)[C@H]2OC(=O)c3c(ccc(C)c3O)[C@@H]2O)co1 | – | – | – | – | – | Active | 9.4 µM | Active | Active | inactive | Active | – | – | –
24.5 µM | > 30 µM | – | > 30 µM | C=C(C/C=C\C=C/CC/C=C/CN(C)C(=O)/C=C(\C)OC)c1ncco1 | – | – | – | – | – | – | 4.3 µM | – | – | – | – | – | – | –
1 µM | 5.2 µM | – | 18.6 µM | C=C(C/C=C\C=C/CC/C=C/CN(C)C(=O)/C=C(\C)OC)c1nc(C[C@H](C)[C@@H]2CC[C@@H](C)C[C@H]2O)co1 | – | – | – | – | – | Active | 3.3 µM | Active | Active | inactive | Active | Active | Active | inactive
